Literature values in PubChem BioAssay AID1259409 (Chemical Carcinogenesis Research Information System (CCRIS), 2018).

Tested on: rodent chemically induced tumor inhibition, incidence and multiplicity
Assay: CCRIS tumor inhibitor studies

| Compound | tumour outcome (control, treated, inhibition, significance) (Carcinogen: 7,12-DIMETHYLBENZ[A]ANTHRACENE, 57-97-6, Dose [Inhibitor]: 100 UG IN 0.2 ML ACETONE ONCE 5 MIN BEFORE CARCINOGEN TREATMENT (STUDY DURATION: 31 WK), Route [Inhibitor]: DERMAL, Species: MOUSE, Strain/Sex: CD-1/FEMALE, Target Tissue: Type of Lesion: SKIN: PAPILLOMA, Dose [Carcinogen]: 10 NMOL IN 0.2 ML ACETONE ONCE, Promoter: 12-O-TETRADECANOYLPHORBOL-13-ACETATE, 16561-29-8) | tumour outcome (control, treated, inhibition, significance) (Carcinogen: BENZO[A]PYRENE, 50-32-8, Dose [Inhibitor]: 100 UG IN 0.2 ML ACETONE ONCE 5 MINUTES BEFORE CARCINOGEN TREATMENT (STUDY DURATION: 31 WK), Route [Inhibitor]: DERMAL, Species: MOUSE, Strain/Sex: CD-1/FEMALE, Target Tissue: Type of Lesion: SKIN: PAPILLOMA, Dose [Carcinogen]: 400 NMOL IN 0.2 ML ACETONE ONCE, Promoter: 12-O-TETRADECANOYLPHORBOL-13-ACETATE, 16561-29-8) | tumour outcome (control, treated, inhibition, significance) (Carcinogen: 7,12-DIMETHYLBENZ[A]ANTHRACENE, 57-97-6, Dose [Inhibitor]: 0, 2.5 NG/KG BW ADMINISTERED INTRAGASTRICALLY TO MOTHERS ON DAYS 13 TO 19 POST-CONCEPTION (STUDY DURATION: 178 D), Route [Inhibitor]: IN UTERO, ORAL, Species: RAT, Strain/Sex: SD/FEMALE, Target Tissue: Type of Lesion: MAMMARY GLAND: TUMOR, Dose [Carcinogen]: 20 MG/KG BW ADMINISTERED TO 50-DAY OLD OFFSPRING) | tumour outcome (control, treated, inhibition, significance) (Carcinogen: 7,12-DIMETHYLBENZ[A]ANTHRACENE, 57-97-6, Dose [Inhibitor]: 0, 7.5 UG/KG BW ADMINISTERED INTRAGASTRICALLY TO MOTHERS ON DAYS 13 TO 19 POST-CONCEPTION (STUDY DURATION: 178 D), Route [Inhibitor]: IN UTERO, ORAL, Species: RAT, Strain/Sex: SD/FEMALE, Target Tissue: Type of Lesion: MAMMARY GLAND: TUMOR, Dose [Carcinogen]: 20 MG/KG BW ADMINISTERED TO 50-DAY OLD OFFSPRING) | tumour outcome (control, treated, inhibition, significance) (Carcinogen: 7,12-DIMETHYLBENZ[A]ANTHRACENE, 57-97-6, Dose [Inhibitor]: 0, 250 NG/KG BW ADMINISTERED INTRAGASTRICALLY TO MOTHERS ON DAYS 13 TO 19 POST-CONCEPTION (STUDY DURATION: 178 D), Route [Inhibitor]: IN UTERO, ORAL, Species: RAT, Strain/Sex: SD/FEMALE, Target Tissue: Type of Lesion: MAMMARY GLAND: TUMOR, Dose [Carcinogen]: 20 MG/KG BW ADMINISTERED TO 50-DAY OLD OFFSPRING) |
| --- | --- | --- | --- | --- | --- |
| c1ccc(Cn2ccnc2)cc1 | 87%, 80%, 8%, not calculated | 90%, 78%, 13%, not calculated | – | – | – |
| Clc1ccc(-c2cc(Cl)c(Cl)c(Cl)c2)cc1Cl | – | – | 93%, 93%, 0%, not significant | 93%, 78%, 17%, p<0.05 | 93%, 96%, -3%, not significant |
